Results as given in BigSolDB 2.1.

C=C[C@]1(C)C[C@@H](OC(=O)CSCCN(CC)CC)[C@]2(C)[C@H](C)CC[C@]3(CCC(=O)[C@H]32)[C@@H](C)[C@@H]1O.O=C(O)/C=C/C(=O)O
solubility (mole fraction)
Settings	283.15 K	293.15 K	303.15 K	313.15 K	323.15 K
in MIBK	0.000867	0.00108	0.00134	0.00191	0.00254
in acetone	0.00132	0.00257	0.00377	0.00574	0.00861
in acetonitrile	8.33e-05	0.00016	0.000235	0.000495	0.000993
in ethyl acetate	0.000525	0.000719	0.00102	0.00147	0.00215
in isobutyl acetate	0.000437	0.000574	0.000744	0.00103	0.00143
in isopropanol	0.00103	0.00124	0.00173	0.00288	0.00466
in isopropyl acetate	0.00044	0.00061	0.000823	0.00118	0.00163
in methyl acetate	0.000372	0.000443	0.000624	0.000964	0.00142
in n-butanol	0.00276	0.00458	0.00596	0.00962	0.0173
in n-butyl acetate	0.000517	0.000712	0.001	0.0013	0.00168
in toluene	5.73e-05	9.62e-05	0.000174	0.000274	0.000537
